Like-named read-outs stand apart in the source and are kept apart here.
Key:
[1] = system: cucumber downy mildew; assay: Persistence comparative test against cucumber downy mildew (greenhouse); format: in vivo
[2] = system: banana anthracnose; format: cell-based
[3] = system: rice sheath blight; format: cell-based
[4] = system: rice blast; format: cell-based
[5] = system: corn rust; assay: Greenhouse pot seedling assay, corn rust; format: in vivo; settings: for Control (%): comparative test, Table 20; for control of corn rust: greenhouse
[6] = system: rice blast; format: in vivo
[7] = system: mango anthracnose; format: cell-based
[8] = system: cucumber downy mildew; assay: Greenhouse pot seedling assay, cucumber downy mildew; format: in vivo; settings: for Control (%): comparative test, Table 18; for control of cucumber downy mildew: greenhouse
[9] = system: cucumber downy mildew; assay: Field trial against cucumber downy mildew; format: in vivo; settings: for Control (%) average: average of 3 replicates; for Control (%) I: replicate I; for Control (%) II: replicate II; for Control (%) III: replicate III
Protocol: The trial was carried out in a greenhouse in July 2011 in […] district, Shanxi Province. Before the treatment, the cucumber plants were at the beginning of infection. The trial method was based on the National Standard of the People's Republic of China-“Pesticide-Guidelines for The Field Efficacy Trials”. […] The Area of plot was 15 m^2, random arrangement and 3 times replication. The volume was about 600 L/hm^2, and water was as the control. Efficacy calculation method is as follows: [formula] [formula]

[10] = system: corn southern leaf blight; format: cell-based
[11] = system: sigatoka; format: cell-based
[12] = system: wheat powdery mildew; assay: Greenhouse pot seedling assay, wheat powdery mildew; format: in vivo; settings: 400 ppm

CNC(=O)c1ccccc1NC(=O)COc1ccc(CNC(=O)c2c(Cl)c(C)nn2C)cc1 [Compound 15]
Control (%) ([1]; 25 ppm, inoculation 3 days after treatment): 52%
Control (%) ([1]; 25 ppm, inoculation 7 days after treatment): 44%
Control (%) ([1]; 50 ppm, inoculation 3 days after treatment): 74%
Control (%) ([1]; 50 ppm, inoculation 7 days after treatment): 62%
Control (%) ([1]; 100 ppm, inoculation 3 days after treatment): 96%
Control (%) ([1]; 100 ppm, inoculation 7 days after treatment): 70%
Control (%) ([1]; 200 ppm, inoculation 3 days after treatment): 100%
Control (%) ([1]; 200 ppm, inoculation 7 days after treatment): 74%
Control (%) ([1]; 400 ppm, inoculation 3 days after treatment): 100%
Control (%) ([1]; 400 ppm, inoculation 7 days after treatment): 81%
EC50 against banana anthracnose [2]: 2.867 ppm
EC50 against rice sheath blight [3]: 0.799 ppm
inhibition ratio on spore germination of rice blast ([4]; 0.3 ppm): 100%
inhibition ratio on spore germination of rice blast ([4]; 25 ppm): 100%
Control (%) ([5]; 3.13 ppm): 20%
Control (%) ([5]; 6.25 ppm): 60%
Control (%) ([5]; 12.5 ppm): 80%
Control (%) ([5]; 25 ppm): 95%
control of corn rust ([5]; 25 ppm): 100%
Control (%) ([5]; 50 ppm): 100%
Control (%) ([5]; 100 ppm): 100%
Biological activity in greenhouse, corn rust ([5]; 400 ppm, Table 21): 100
control of corn rust ([5]; 400 ppm): 100%
Control (%) I ([6]; 400 ppm): 69%
Control (%) II ([6]; 400 ppm): 71%
Control (%) III ([6]; 400 ppm): 67%
Control (%) average ([6]; 400 ppm): 69%
Control (%) I ([6]; 600 ppm): 77%
Control (%) II ([6]; 600 ppm): 81%
Control (%) III ([6]; 600 ppm): 77%
Control (%) average ([6]; 600 ppm): 78%
Control (%) I ([6]; 800 ppm): 84%
Control (%) II ([6]; 800 ppm): 89%
Control (%) III ([6]; 800 ppm): 88%
Control (%) average ([6]; 800 ppm): 87%
EC50 against mango anthracnose [7]: 1.518 ppm
Control (%) ([8]; 6.25 ppm): 44%
Control (%) ([8]; 12.5 ppm): 66%
Control (%) ([8]; 25 ppm): 88%
control of cucumber downy mildew ([8]; 25 ppm): 100%
Control (%) ([8]; 50 ppm): 96%
control of cucumber downy mildew ([8]; 50 ppm): 100%
Control (%) ([8]; 100 ppm): 100%
Biological activity in greenhouse, cucumber downy mildew ([8]; 400 ppm, Table 21): 100
control of cucumber downy mildew ([8]; 400 ppm): 100%
Control (%) average ([9]; 100 ppm): 52%
Control (%) I ([9]; 100 ppm): 33%
Control (%) II ([9]; 100 ppm): 53%
Control (%) III ([9]; 100 ppm): 69%
Control (%) average ([9]; 200 ppm): 66%
Control (%) I ([9]; 200 ppm): 60%
Control (%) II ([9]; 200 ppm): 65%
Control (%) III ([9]; 200 ppm): 72%
Control (%) average ([9]; 400 ppm): 82%
Control (%) I ([9]; 400 ppm): 80%
Control (%) II ([9]; 400 ppm): 81%
Control (%) III ([9]; 400 ppm): 86%
EC50 against corn southern leaf blight [10]: 0.035 ppm
EC50 against sigatoka [11]: 2.389 ppm
Biological activity in greenhouse, wheat powdery mildew ([12]; Table 21): 100
control of wheat powdery mildew ([12]; greenhouse): 100%
